{"source": "paper PMC2362731", "about": "“Phase I study of Carzelesin (U-80,244) given (4-weekly) by intravenous bolus schedule” (British Journal of Cancer, 1999)", "key": {"[1]": {"system": "mice", "parameters": "method as in McGovren et al, 1984", "settings": "ref McGovren et al, 1984; cited from earlier work"}, "[2]": {"system": "rabbits", "parameters": "method as in McGovren et al, 1984", "settings": "ref McGovren et al, 1984; cited from earlier work"}, "[3]": {"system": "granulocytes (ANC), white blood cells (WBC), platelets", "experiment": "Pharmacokinetic-pharmacodynamic relationship of bone marrow toxicity (%decr vs AUC)", "type": "in vivo", "settings": "plasma level of U-76,074 above 1 ng ml-1", "description": "Carzelesin (U-80,244, Figure 1A) is a cyclopropylpyrroloindole (CPI) prodrug analogue of CC-1065. […] CPI drugs are a class of compounds with unique DNA interactive properties. These agents fit into the minor groove region of DNA, and the CPI function in the molecule mediates a covalent binding to the N3 position of adenine in A-T rich regions, thus forming DNA adducts in a sequence selective fashion (Hurley et al, 1984; Reynolds et al, 1985). Three new CPIs have now been developed. […] Bizelesin differs from the classical CPI drugs in that it contains two chloromethyl functions, which are both converted (via intramolecular rearrangements) to the CPI alkyl- ating species that interact with DNA. Consequently, this agent is capable of forming DNA interstrand cross-links (Lee et al, 1991). […] Therefore, efforts were directed to modu- late the alkylation rate by the preparation of CPI prodrugs that would require chemical or enzymatic conversion. The activation of Carzelesin is a two-step reaction with hydrolysis of the phenyl- urethane substituent to form the intermediate compound U-76,073, followed by ring closure to form the active product U-76,074 (Figure 1B). […] This higher efficacy may be related to the pharmacologic features of the compound. […] Phase I study of Carzelesin (U-80,244) given (4-weekly) by intravenous bolus schedule A Awada1, CJA Punt2, MJ Piccart1, O Van Tellingen3, L Van Manen2, J Kerger1, Y Groot4, J Wanders4, J Verweij5 and DJTh Wagener2 1Institut Jules Bordet, Bd de Waterloo 125, 1000 Brussels, Belgium; 2University Hospital, Geert Grooteplein 8, Box 9101, 6500 HB Nijmegen, The Netherlands; 3The Netherlands Cancer Institute (Antoni van Leeuwenhoek Huis), Plesmanlaan 121, 1066 CX Amsterdam, The Netherlands; 4European Organization for Research and Treatment of Cancer - New Drug Development Office, PO Box 7057, Amsterdam, The Netherlands; 5Rotterdam Cancer Institute, Groene Hilledijk 301, 3075 EA Rotterdam, The Netherlands; on behalf of the EORTC Early Clinical Studies Group and EORTC NDDO Summary Carzelesin is a cyclopropylpyrroloindole analogue which acts as a DNA-sequence-specific alkylating agent. In this phase I study, Carzelesin was given as a 4-weekly 10 min IV infusion to 51 patients with advanced solid tumours. Patients received a median of two courses (range 1-5) at one of nine dose levels: […]. According to NCI-CTC criteria, non- haematological toxicities (grade 1/2) included fever, nausea and vomiting, mucositis and anorexia, none of which was clearly dose related. […] The concentration of U-76,074 (active metabolite) extended above the lower limit of quantitation (1 ng ml-1) for short periods of time and only at the higher dose levels. […]"}, "[4]": {"experiment": "Plasma pharmacokinetics of Carzelesin and metabolites by HPLC, first course", "type": "in vivo, human", "settings": "for mean concentration of metabolite: highest dose level 300 of Carzelesin", "protocol": "Carzelesin is a cyclopropylpyrroloindole analogue which acts as a DNA-sequence-specific alkylating agent. In this phase I study, Carzelesin was given as a 4-weekly 10 min IV infusion to 51 patients with advanced solid tumours. Patients received a median of two courses (range 1–5) at one of nine dose levels: 24, 48, 96, 130, 150, 170, 210, 250 and 300 μg m^−2. According to NCI-CTC criteria, non-haematological toxicities (grade 1/2) included fever, nausea and vomiting, mucositis and anorexia, none of which was clearly dose related. The dose-limiting toxicity was haematological and consisted mainly of neutropenia and to a lesser extent thrombocytopenia. From the dose level 150 μg m^−2, the haematological toxicity (particularly thrombocytopenia) was delayed in onset, prolonged and cumulative in some patients. In several courses, double WBC nadirs occurred. The maximum tolerated dose for a single course was 300 μg m^−2. From the dose level 170 μg m^−2, the intended dose intensity could not be delivered to most patients receiving > 2 courses owing to cumulative haematological toxicity. The dose level with the best dose intensity for multiple courses was 150 μg m^−2. The pharmacokinetics of Carzelesin and its metabolites (U-76,073; U-76,074) have been established in 31 patients during the first course of treatment using a HPLC method. […] The concentration of U-76,074 (active metabolite) extended above the lower limit of quantitation (1 ng ml^−1) for short periods of time and only at the higher dose levels. There was no relationship between neutropenia and the AUC of the prodrug Carzelesin, but the presence of detectable plasma levels of the active metabolite U-76,074 was usually associated with a substantial decrease in ANC values. © 1999 Cancer Research Campaign\nCarzelesin (U-80,244, Figure 1A) is a cyclopropylpyrroloindole (CPI) prodrug analogue of CC-1065. […] CPI drugs are a class of compounds with unique DNA interactive properties. These agents fit into the minor groove region of DNA, and the CPI function in the molecule mediates a covalent binding to the N3 position of adenine in A-T rich regions, thus forming DNA adducts in a sequence selective fashion (Hurley et al, 1984; Reynolds et al, 1985). Three new CPIs have now been developed. […] Bizelesin differs from the classical CPI drugs in that it contains two chloromethyl functions, which are both converted (via intramolecular rearrangements) to the CPI alkyl- ating species that interact with DNA. Consequently, this agent is capable of forming DNA interstrand cross-links (Lee et al, 1991). […] Therefore, efforts were directed to modu- late the alkylation rate by the preparation of CPI prodrugs that would require chemical or enzymatic conversion. The activation of Carzelesin is a two-step reaction with hydrolysis of the phenyl- urethane substituent to form the intermediate compound U-76,073, followed by ring closure to form the active product U-76,074 (Figure 1B). […] This higher efficacy may be related to the pharmacologic features of the compound. […] Phase I study of Carzelesin (U-80,244) given (4-weekly) by intravenous bolus schedule A Awada1, CJA Punt2, MJ Piccart1, O Van Tellingen3, L Van Manen2, J Kerger1, Y Groot4, J Wanders4, J Verweij5 and DJTh Wagener2 1Institut Jules Bordet, Bd de Waterloo 125, 1000 Brussels, Belgium; 2University Hospital, Geert Grooteplein 8, Box 9101, 6500 HB Nijmegen, The Netherlands; 3The Netherlands Cancer Institute (Antoni van Leeuwenhoek Huis), Plesmanlaan 121, 1066 CX Amsterdam, The Netherlands; 4European Organization for Research and Treatment of Cancer - New Drug Development Office, PO Box 7057, Amsterdam, The Netherlands; 5Rotterdam Cancer Institute, Groene Hilledijk 301, 3075 EA Rotterdam, The Netherlands; on behalf of the EORTC Early Clinical Studies Group and EORTC NDDO Summary Carzelesin is a cyclopropylpyrroloindole analogue which acts as a DNA-sequence-specific alkylating agent. […]"}, "[5]": {"system": "patients", "parameters": "method as in Sessa et al, 1994", "settings": "day 1 q 4 weeks schedule; ref Sessa et al, 1994; cited from earlier work"}}}
{"molecule": "COc1c(O)c2c(c3cc(C(=O)N4CCc5c4c(O)c(OC)c4[nH]c(C(=O)N6CC7CC78C6=CC(=O)c6[nH]cc(C)c68)cc54)[nH]c13)CCN2C(N)=O", "note": "(centres unmarked) [CC-1065]", "values": [{"measurement": "toxicity at sub-therapeutic doses", "setting": "[1]", "value": "delayed fatal toxicity"}, {"measurement": "toxicity at sub-therapeutic doses", "setting": "[2]", "value": "delayed fatal toxicity"}]}
{"molecule": "CCN(CC)c1ccc2cc(C(=O)Nc3ccc4[nH]c(C(=O)N5C[C@H]6C[C@@]67C5=CC(=O)c5[nH]cc(C)c57)cc4c3)oc2c1", "note": "[U-76,074]", "values": [{"measurement": "decrease in ANC values associated with detectable plasma levels", "setting": "[3]", "value": "greater than 60%"}, {"measurement": "plasma level of active metabolite, for short periods of time in most patients", "setting": "[4]; Carzelesin dose of 130 or higher", "value": "exceeded 1 ng ml-1"}, {"measurement": "plasma concentration of active metabolite in the majority of patients", "setting": "[4]; from the Carzelesin dose level 96", "value": "1 to 2", "unit": "ng/mL"}, {"measurement": "mean concentration of metabolite", "setting": "[4]", "value": 3, "unit": "ng/mL"}]}
{"molecule": "CCN(CC)c1ccc2cc(C(=O)Nc3ccc4[nH]c(C(=O)N5C[C@@H](CCl)c6c5cc(O)c5[nH]cc(C)c65)cc4c3)oc2c1", "note": "[U-76,073]", "values": [{"measurement": "mean concentration of metabolite", "setting": "[4]", "value": 18, "unit": "ng/mL"}]}
{"molecule": "Cn1cc(NC(=O)c2cc(NC(=O)c3cc(NC(=O)c4ccc(N(CCCl)CCCl)cc4)cn3C)cn2C)cc1C(=O)NCCC(=N)N", "note": "[Tallimustine]", "values": [{"measurement": "dose-limiting toxicity", "setting": "[5]", "value": "brief neutropenia"}]}
